The values below are quoted from earlier work in patent publication US10307392B2, “Compound and method for treatment of diseases and disorders” (priority 2017, dated 2019).

Read-outs that look alike come from different tables or passages of the source.

In series [1] the test system is spasticity. As to conditions: in vivo.
Series [2] concerns subjects with noninsulin-treated type 2 diabetes.
In series [3] the test system is PBQ-induced writhing in mice. As to conditions: for reducing analgesia and inflammation: mouse, in vivo.
Series [4] relates to neuronal cultures.
The test system of series [5] is Parkinson's disease. As to conditions: oral, started with 150 mg/day, 4 weeks.
For series [6] the following is noted: cyclic voltametry and fenton reaction-based system.
Series [7] concerns rat cortical neuron cultures exposed to toxic levels of the neurotransmitter, glutamate. As to conditions: for prevention of glutamate toxicity: isolated or synthetic cannabinoid, in vitro neuronal cultures exposed to glutamate; for NMDA, AMPA and kainate receptor mediated neurotoxicity: not affected by cannabinoid receptor antagonist.
In series [8] the test system is females with severe somatoform and dysautonomic syndrome following HPV vaccination. Further details: dose or concentration left out as unconfirmed. The note with it: up to a maximum dose of CBD per day; 12 females.
Series [9] has as its system MS patients. The note with it: 13 weeks' follow-up.
Series [10] concerns patients receiving Marinol.

Regarding `CCCCCCC(C)(C)c1cc(O)c2c(c1)OC(C)(C)C1CCC(=O)CC21` (stereo not shown) [Cesamet], the reducing spasticity entry in series [1] is reported as “positive results”.
For the molecule `CCCc1cc(O)c2c(c1)OC(C)(C)[C@@H]1CCC(C)=C[C@@H]21` [THCV], in series [2] (10 mg THCV per day), the tolerability entry is “well tolerated”.
Take `CCCCCc1cc(O)c2c(c1)OC(C)(C)c1ccc(C)cc1-2` [CBN, cannabinol]: the “reducing analgesia and inflammation” value in series [3] is listed as “least effective”.
Consider `C=C(C)[C@@H]1CCC(C)=C[C@H]1c1c(O)cc(CCCCC)cc1O` [CBD, cannabidiol], for which the “hydroperoxide toxicity in neurons” value in series [4] is “reduce hydroperoxide toxicity”. The “adverse effect during the treatment” value in series [5] is “no adverse effect”. The antioxidant activity entry in [6] is given as “potent antioxidants”. Further, in series [7], the “protective capacity against glutamate toxicity, head to head with other antioxidants” value was “superior to both alpha-tocopherol and ascorbate”; the “prevention of glutamate toxicity” value was “prevented to some extent”; the “NMDA, AMPA and kainate receptor mediated neurotoxicity” value is recorded as “reduced”. For the same molecule, the tolerability entry in series [8] is reported as “well tolerated”. Moreover, the tolerability entry in [2] (200 mg CBD per day, 62 subjects in study) is recorded as “well tolerated”. The “inhibition of PBQ-induced writhing” value in [3] (oral administration, mice) is “most effective”.
Consider `CCCCCc1cc(O)c2c(c1)OC(C)(C)[C@@H]1CCC(C)=C[C@@H]21` [THC, delta-9-tetrahydrocannabinol], for which the antioxidant activity result in series [6] is “potent antioxidants”. Besides, in [7], the “prevention of glutamate toxicity” value is recorded as “prevented to some extent”; the “NMDA, AMPA and kainate receptor mediated neurotoxicity” value is reported as “reduced”. The “Mean (SD) change in total Ashworth score (baseline minus follow-up)” value in series [9] (placebo 0.92 (6.56)) is 1.86 (7.95). Besides, the “Mean (SD) change in Ashworth score, lower-body muscle groups” value in series [9] (placebo 1.04 (4.20)) is 1.39 (5.21). In series [9] (placebo −0.11 (4.04)), the “Mean (SD) change in Ashworth score, upper-body muscle groups” value is 0.48 (4.70). In addition, the “reducing analgesia and inflammation” value in [3] is recorded as “least effective”.
Regarding `CCCCCc1cc(O)c2c(c1)OC(C)(C)[C@@H]1CCC(C)=C[C@@H]21` [Marinol], the “patients reporting cannabinoid dose-related psychotropic effect” value is given as 24% in series [10] (antiemetic clinical trials) and 8% in series [10] (lower dose appetite stimulant clinical trials). Moreover, the entries for the “patients reporting a CNS adverse reaction” value in series [10] (during the first 2 weeks) and in series [10] (each week for the next 6 weeks) were “About 25%” and “about 4%”, respectively. In series [10] (patients with AIDS, placebo-controlled clinical trials), the “patients reporting adverse experiences involving the CNS” value is 33%. Besides, the reducing spasticity result in series [1] is on record as “positive results”.
